Measured values reported in patent US10611740B2, “Aryl dihydro-2H-benzo[b][1,4]oxazine sulfonamide and related compounds for use as agonists of RORγ and the treatment of disease” (Lycera Corporation, priority 2015, dated 2020).

Assays:
RORγ-LBD = target: T1, RORγ-LBD (Homo sapiens, UniProt P51449); assay: RORγ-Ligand Binding Domain (LBD) TR-FRET Assay; type: biochemical;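 as to TR-FRET Assay Max Response: 665/615 nm ratio relative to signal without ursolic acid or compound set at 100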
T1 construct: made in house; host or cells: SF9 cells (baculovirus)
T1 sequence (P51449 269-508 limits assumed): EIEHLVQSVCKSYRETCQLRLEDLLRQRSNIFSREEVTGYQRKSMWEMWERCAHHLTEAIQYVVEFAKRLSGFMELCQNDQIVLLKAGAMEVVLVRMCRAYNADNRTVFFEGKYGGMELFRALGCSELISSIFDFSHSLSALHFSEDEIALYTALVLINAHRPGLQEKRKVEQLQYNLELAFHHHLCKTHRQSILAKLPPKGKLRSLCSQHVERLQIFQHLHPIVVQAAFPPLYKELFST
In short: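 Compounds, diluted in DMSO and then in assay buffer (1% DMSO final), were combined with His-tagged RORγ-LBD lysate at roughly 3 nM final and a 200 nM biotinylated SRC1 LXXLL peptide. Ursolic acid was included at 2 μM final. Coactivator recruitment was detected by TR-FRET.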

Gal4-RORγ-LBD = target: T2, Gal4-RORγ-LBD (Homo sapiens, UniProt P51449); assay: Gal4-RORγ Luciferase Reporter Assay in HEK-293T Cells; type: cell-based; conditions: HEK-293 cells
T2 construct: expressed in transfected cells; host or cells: HEK-293 cells (pcDNA3.1neo plasmid)
T2 sequence (P51449 269-508 limits assumed): T1 sequence (P51449 269-508 limits assumed)
In short: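 HEK-293 cells were transiently co-transfected with Gal4-RORγ-LBD and pGL4.31 Gal4-luciferase, with ursolic acid added at 2 μM final. Compounds were incubated overnight at 37° C. in 0.2% DMSO and luminescence read with One-Glo. Max Response is the upper plateau of a 4-parameter logistic fit, with signal lacking ursolic acid or compound set to 100.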

[1] = luciferase reporter, with 2 μM ursolic acid

EC50 (RORγ-LBD) [nM]	EC50 (Gal4-RORγ-LBD; [1]) [nM]	EC50 (Gal4-RORγ-LBD; 2 μM ursolic acid) [nM]	SMILES	TR-FRET Assay Max Response (RORγ-LBD)	Gal4-RORγ Assay Max Response (Gal4-RORγ-LBD; [1])	Gal4-RORγ Assay Max Response (Gal4-RORγ-LBD; 2 μM ursolic acid)
< 500	500 to 5000		O=C(O)CC[C@H]1CN(S(=O)(=O)c2cccc(C(F)(F)F)c2)c2cc(-c3cccnc3Cl)ccc2O1 [Compound 2BE, (S)-3-(6-(2-chloropyridin-3-yl)-4-((3-(trifluoromethyl)phenyl)-sulfonyl)-3,4-dihydro-2H-benzo[b][1,4]oxazin-2-yl)propanoic acid]	**** (The symbol “****” indicates a value greater than 200)	** (The symbol “**” indicates a value in the range of greater than 90 to 150)	
< 500	500 to 5000		COc1ncccc1-c1ccc2c(c1)N(S(=O)(=O)c1cccc(C(F)(F)F)c1)C[C@H](CCC(=O)O)O2 [Compound 2BG, (S)-3-(6-(2-methoxypyridin-3-yl)-4-((3-(trifluoromethyl)-phenyl)sulfonyl)-3,4-dihydro-2H-benzo[b][1,4]oxazin-2-yl)propanoic acid]	*** (The symbol “***” indicates a value in the range of greater than 150 to 200)	** (The symbol “**” indicates a value in the range of greater than 90 to 150)	
500 to 5000	> 10000		CC(C)Cn1cc(-c2ccc3c(c2)N(S(=O)(=O)c2cccc(C(F)(F)F)c2)C[C@H](CCC(=O)O)O3)cn1 [Compound 2BH, (S)-3-(6-(1-isobutyl-1H-pyrazol-4-yl)-4-((3-(trifluoromethyl)-phenyl)sulfonyl)-3,4-dihydro-2H-benzo[b][1,4]oxazin-2-yl)propanoic acid]	** (The symbol “**” indicates a value in the range of greater than 90 to 150)		
< 500	< 500		Cc1ccc(Cl)c(-c2ccc3c(c2)N(S(=O)(=O)c2cccc(C(F)(F)F)c2)C[C@H](CCC(=O)O)O3)c1 [Compound 2BK, (S)-3-(6-(2-chloro-5-methyl-phenyl)-4-((3-(trifluoromethyl)-phenyl)sulfonyl)-3,4-dihydro-2H-benzo[b][1,4]oxazin-2-yl)propanoic acid]	*** (The symbol “***” indicates a value in the range of greater than 150 to 200)	** (The symbol “**” indicates a value in the range of greater than 90 to 150)	
< 500	< 500		Cc1ccc(F)c(-c2ccc3c(c2)N(S(=O)(=O)c2cccc(C(F)(F)F)c2)C[C@H](CCC(=O)O)O3)c1 [Compound 2BL, (S)-3-(6-(2-fluoro-5-methyl-phenyl)-4-((3-(trifluoromethyl)-phenyl)sulfonyl)-3,4-dihydro-2H-benzo[b][1,4]oxazin-2-yl)propanoic acid]	*** (The symbol “***” indicates a value in the range of greater than 150 to 200)	** (The symbol “**” indicates a value in the range of greater than 90 to 150)	
< 500	500 to 5000		O=C(O)CC[C@H]1CN(S(=O)(=O)c2cccc(C(F)(F)F)c2)c2cc(-c3ccccc3C(F)(F)F)ccc2O1 [Compound 2BM, (S)-3-(6-(2-(trifluoromethyl)-phenyl)-4-((3-(trifluoromethyl)-phenyl)sulfonyl)-3,4-dihydro-2H-benzo[b][1,4]oxazin-2-yl)propanoic acid]	*** (The symbol “***” indicates a value in the range of greater than 150 to 200)	** (The symbol “**” indicates a value in the range of greater than 90 to 150)	
< 500	< 500		Cc1cc(F)cc(-c2ccc3c(c2)N(S(=O)(=O)c2cccc(C(F)(F)F)c2)C[C@H](CCC(=O)O)O3)c1 [Compound 2BN, (S)-3-(6-(3-fluoro-5-methyl-phenyl)-4-((3-(trifluoromethyl)-phenyl)sulfonyl)-3,4-dihydro-2H-benzo[b][1,4]oxazin-2-yl)propanoic acid]	*** (The symbol “***” indicates a value in the range of greater than 150 to 200)	** (The symbol “**” indicates a value in the range of greater than 90 to 150)	
> 10000	> 10000		Cc1noc(C)c1-c1ccc2c(c1)N(S(=O)(=O)c1cccc(C(F)(F)F)c1)C[C@H](CCC(=O)O)O2 [Compound 2BO, (S)-3-(6-(3,5-dimethylisoxazol-4-yl)-4-((3-(trifluoromethyl)-phenyl)sulfonyl)-3,4-dihydro-2H-benzo[b][1,4]oxazin-2-yl)propanoic acid]			
< 500		< 500	Cc1cccc(-c2ccc3c(c2)N(S(=O)(=O)c2cccc(C(F)(F)F)c2)C[C@H](CCC(=O)O)O3)c1C [Compound 2BR, (S)-3-(6-(2,3-dimethylphenyl)-4-((3-(trifluoromethyl)phenyl)-sulfonyl)-3,4-dihydro-2H-benzo[b][1,4]oxazin-2-yl)propanoic acid]	*** (The symbol “***” indicates a value in the range of greater than 150 to 200)		** (The symbol “**” indicates a value in the range of greater than 90 to 150)

More lines, now with the values behind:

SMILES	EC50 (RORγ-LBD) [nM]	EC50 (Gal4-RORγ-LBD; [1]) [nM]	EC50 (Gal4-RORγ-LBD; 2 μM ursolic acid) [nM]	TR-FRET Assay Max Response (RORγ-LBD)	Gal4-RORγ Assay Max Response (Gal4-RORγ-LBD; [1])	Gal4-RORγ Assay Max Response (Gal4-RORγ-LBD; 2 μM ursolic acid)
CS(=O)(=O)c1ccccc1-c1ccc2c(c1)N(S(=O)(=O)c1cccc(C(F)(F)F)c1)C[C@H](CCC(=O)O)O2 [Compound 2BI, (S)-3-(6-(2-(methylsulfonyl)-phenyl)-4-((3-(trifluoromethyl)-phenyl)sulfonyl)-3,4-dihydro-2H-benzo[b][1,4]oxazin-2-yl)propanoic acid]	500 to 5000	500 to 5000		*** (The symbol “***” indicates a value in the range of greater than 150 to 200)	** (The symbol “**” indicates a value in the range of greater than 90 to 150)	
COc1cccc(C#N)c1-c1ccc2c(c1)N(S(=O)(=O)c1cccc(C(F)(F)F)c1)C[C@H](CCC(=O)O)O2 [Compound 2BJ, (S)-3-(6-(2-cyano-6-methoxy-phenyl)-4-((3-(trifluoromethyl)-phenyl)sulfonyl)-3,4-dihydro-2H-benzo[b][1,4]oxazin-2-yl)propanoic acid]	> 10000	> 10000			** (The symbol “**” indicates a value in the range of greater than 90 to 150)	
O=C(O)CC[C@H]1CN(S(=O)(=O)c2cccc(C(F)(F)F)c2)c2cc(-c3cc(Cl)ccc3F)ccc2O1 [Compound 2C, (S)-3-(6-(5-chloro-2-fluorophenyl)-4-((3-(trifluoromethyl)phenyl)-sulfonyl)-3,4-dihydro-2H-benzo[b][1,4]oxazin-2-yl)propanoic acid]	< 500	< 500		*** (The symbol “***” indicates a value in the range of greater than 150 to 200)	** (The symbol “**” indicates a value in the range of greater than 90 to 150)	
O=C(O)CC[C@H]1CN(S(=O)(=O)c2cccc(C(F)(F)F)c2)c2cc(-c3ccc(Cl)c(Cl)c3)ccc2O1 [Compound 2E, (S)-3-(6-(3,4-dichlorophenyl)-4-((3-(trifluoromethyl)phenyl)-sulfonyl)-3,4-dihydro-2H-benzo[b][1,4]oxazin-2-yl)propanoic acid]	< 500	< 500		*** (The symbol “***” indicates a value in the range of greater than 150 to 200)	** (The symbol “**” indicates a value in the range of greater than 90 to 150)	
O=C(O)CC[C@H]1CN(S(=O)(=O)c2cccc(C(F)(F)F)c2)c2cc(-c3cccc(C(F)(F)F)c3)ccc2O1 [Compound 2G, (S)-3-(6-(3-(trifluoromethyl)phenyl)-4-((3-(trifluoromethyl)phenyl)-sulfonyl)-3,4-dihydro-2H-benzo[b][1,4]oxazin-2-yl)propanoic acid]	< 500	< 500		*** (The symbol “***” indicates a value in the range of greater than 150 to 200)	*** (The symbol “***” indicates a value in the range of greater than 150 to 200)	
O=C(O)CC[C@H]1CN(S(=O)(=O)c2cccc(C(F)(F)F)c2)c2cc(-c3cc(F)cc(Cl)c3)ccc2O1 [Compound 2I, (S)-3-(6-(3-chloro-5-fluorophenyl)-4-((3-(trifluoro-methyl)phenyl)sulfonyl)-3,4-dihydro-2H-benzo[b][1,4]-oxazin-2-yl)propanoic acid]	< 500	< 500		*** (The symbol “***” indicates a value in the range of greater than 150 to 200)	*** (The symbol “***” indicates a value in the range of greater than 150 to 200)	
O=C(O)CC[C@H]1CN(S(=O)(=O)c2cccc(C(F)(F)F)c2)c2cc(-c3ccc(F)c(Cl)c3)ccc2O1 [Compound 2J, (S)-3-(6-(3-chloro-4-fluorophenyl)-4-((3-(trifluoromethyl)phenyl)-sulfonyl)-3,4-dihydro-2H-benzo[b][1,4]oxazin-2-yl)propanoic acid]	< 500	500 to 5000		** (The symbol “**” indicates a value in the range of greater than 90 to 150)	* (The symbol “*” indicates a value in the range of 25 to 90)	
